Laboratory results taken from US20130231290A1, “METHODS OF DIAGNOSING AND TREATING NEURODEGENERATIVE DISEASES” (DIGNITY HEALTH, priority 2010, published 2013).

What was measured:
heteromeric α7β2-nAChRs = biological target: T1, heteromeric α7β2-nAChRs (Rattus norvegicus, UniProt P12390+Q05941); type: cell-based
T1 construct: expressed in transfected cells; host or cells: Xenopus laevis oocytes injected with cRNA (pGEMHE vector)

[1] = biological target: T2, α7-containing-nAChRs in nAChR β2 subunit knockout mice (Mus musculus, UniProt P49582); type: cell-based
T2 construct: MS/DB neurons derived from nAChR β2 subunit knock-out mice; endogenous in cells; host or cells: acutely dissociated MS/DB neurons of nAChR β2 knockout mice (C57/Bl6 background)

[2] = biological target: T3, homomeric α7-nAChRs on VTA DAergic neurons (Rattus norvegicus, UniProt Q05941); type: cell-based
T3 construct: native nAChR responses in rat MS/DB or VTA neurons; endogenous in cells; host or cells: acutely dissociated VTA dopaminergic neurons of Wistar rats

[3] = biological target: α7β2-nAChRs on MS/DB cholinergic neurons (Rattus norvegicus, UniProt P12390+Q05941); assay: Perforated-patch whole-cell recording of nAChR-mediated (choline/ACh-induced) currents in acutely dissociated MS/DB cholinergic neurons; type: cell-based
[4] = system: α7−/− hippocampal neurons; assay: Aβ toxicity in α7−/− hippocampal neurons; type: cell-based, mouse; details: α7−/− compared to WT hippocampal neurons
[5] = biological target: T4, α7β2-nAChRs on MS/DB cholinergic neurons (Mus musculus, UniProt P49582+Q9ERK7); assay: Choline-induced currents in MS/DB neurons from wild-type mice; type: cell-based; details: 1 nM
T4 construct: Compared to MS/DB neurons from WT mice; endogenous in cells; host or cells: acutely dissociated MS/DB neurons of wild-type C57/Bl6 mice

GABAA receptors = assay: GABA-induced currents in rat MS/DB cholinergic neurons; type: cell-based; details: 1 nM peptide; 0.1 mM GABA
[6] = system: ionotropic glutamate receptors; assay: Glutamate-induced currents in rat MS/DB cholinergic neurons; type: cell-based; details: 1 nM peptide; 1 mM glutamate
[7] = system: cultured mouse hippocampal neurons; assay: Aβ-induced degeneration of cultured hippocampal neurons (DAPI staining, LDH levels); type: cell-based
neurons from α7−/− mice = assay: Neuronal excitability after chronic Aβ in cultured hippocampal neurons from α7−/− mice; type: cell-based, mouse; details: chronic exposure
Excerpt: To further investigate whether pharmacological block of α7-nAChR eliminated the expression of neuronal hyperexcitation after chronic Aβ exposure. […] Comparing cultured neurons from WT and α7−/− mice could further establish if α7-nAChRs play a role in the induction of Aβ-induced neuronal hyperexcitation by comparing cultured neurons from WT and α7−/− mice.

[8] = system: cultured hippocampal pyramidal neurons; assay: Patch-clamp recording of neuronal excitability in cultured hippocampal neurons after chronic Aβ; type: cell-based, mouse; details: for neuronal excitability (spontaneous bursting AP firing, input-output curve): chronic exposure, treated vs untreated neurons
MS/DB neurons = assay: Current-clamp recording of spontaneous action potential firing in dissociated MS/DB neurons; type: cell-based, rat; details: 1 μM
[9] = system: hippocampal slices prepared from 3×Tg-AD mice; assay: CCh-induced network synchronization, field recordings in CA1 of hippocampal slices from 3×Tg-AD mice; type: cell-based, mouse; details: 3×Tg mice (10 month-old) compared to age-matched WT mice
hippocampal CA1 slices = assay: CCh-induced network synchronization, field potential recordings in hippocampal CA1 slices from WT mice; type: cell-based, mouse; details: 50 μM bath-perfusion, mice 6 months old
Excerpt: (§1) Comparing CCh-induced network synchronization in the hippocampal CA1 slices from WT and α7−/− mice (6 months old) using field potential recordings allowed testing of whether α7-nAChRs contribute to network synchronization and seizure susceptibility.

α7−/− slices = assay: CCh-induced network synchronization, field potential recordings in hippocampal CA1 slices from α7−/− mice; type: cell-based, mouse; details: 50 μM, mice 6 months old
Excerpt: as §1

[10] = chronic Aβ, neurons from WT mice

T3 sequence (Q05941 23-502): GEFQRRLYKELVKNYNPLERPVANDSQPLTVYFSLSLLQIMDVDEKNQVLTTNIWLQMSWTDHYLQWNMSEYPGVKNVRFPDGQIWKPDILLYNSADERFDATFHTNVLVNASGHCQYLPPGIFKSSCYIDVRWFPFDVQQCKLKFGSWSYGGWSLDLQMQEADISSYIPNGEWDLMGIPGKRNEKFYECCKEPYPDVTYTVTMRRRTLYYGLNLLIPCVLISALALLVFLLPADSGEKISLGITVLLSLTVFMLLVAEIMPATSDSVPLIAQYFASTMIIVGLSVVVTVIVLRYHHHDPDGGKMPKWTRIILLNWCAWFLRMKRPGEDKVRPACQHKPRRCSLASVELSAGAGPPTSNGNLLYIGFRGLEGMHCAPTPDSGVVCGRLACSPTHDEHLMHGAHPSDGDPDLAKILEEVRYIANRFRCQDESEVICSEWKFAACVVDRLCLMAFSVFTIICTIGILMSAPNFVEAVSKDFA
Sequence of α7β2-nAChRs on MS/DB cholinergic neurons (Rattus norvegicus, UniProt P12390+Q05941) (Q05941 23-502): as above
Sequence of α7β2-nAChRs on MS/DB cholinergic neurons (Rattus norvegicus, UniProt P12390+Q05941) (P12390 25-500): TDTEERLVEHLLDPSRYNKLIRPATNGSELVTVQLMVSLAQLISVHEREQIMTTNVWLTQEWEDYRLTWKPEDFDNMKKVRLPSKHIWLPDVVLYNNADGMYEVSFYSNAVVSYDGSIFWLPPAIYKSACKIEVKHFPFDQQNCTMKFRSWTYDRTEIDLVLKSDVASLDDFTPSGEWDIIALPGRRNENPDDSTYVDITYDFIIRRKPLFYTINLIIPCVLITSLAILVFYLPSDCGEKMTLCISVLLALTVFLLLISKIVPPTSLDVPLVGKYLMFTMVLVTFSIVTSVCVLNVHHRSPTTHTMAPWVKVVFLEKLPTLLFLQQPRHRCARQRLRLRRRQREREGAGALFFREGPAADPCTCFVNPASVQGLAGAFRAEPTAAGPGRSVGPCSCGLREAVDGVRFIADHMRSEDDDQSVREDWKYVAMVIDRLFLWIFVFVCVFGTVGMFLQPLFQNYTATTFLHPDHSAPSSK
T1 sequence (Q05941 23-502): as the sequence (Q05941 23-502) above
T1 sequence (P12390 25-500): as the sequence (P12390 25-500) above
T2 sequence (P49582 23-502): as the sequence (Q05941 23-502) above, with A402T counted along it
T4 sequence (P49582 23-502): as the sequence (Q05941 23-502) above, with A402T counted along it
T4 sequence (Q9ERK7 26-501): as the sequence (P12390 25-500) above, with A350T, V371M, R379Q, T383A, P387L, V391M, V449I, P468S counted along it

Q: `CO[C@H]1CC=C2CCN3CCC4=C(CC(=O)OC4)[C@]23C1` [DHβE, dihydro-β-erythroidine] was tested. Which “sensitivity to functional blockade, α7β2-nAChR compared with homomeric α7-nAChR” value (heteromeric α7β2-nAChRs; 10 mM choline-induced currents in oocytes) did it give?
A: The value was “more sensitive”.

Q: And the “antagonist sensitivity of choline-induced currents” value ([1]; MS/DB neurons from β2 knockouts compared with wild-type)?
A: Its value is “lower sensitivity”.

Q: And the “Hill coefficient of concentration-inhibition curve” value ([2]; 10 mM choline-induced currents, VTA neurons)?
A: Its value is 0.3.

Q: And the IC50 ([2]; 10 mM choline, VTA neurons, n=7, read-out: IC50 for inhibition of choline-induced currents)?
A: The IC50 was > 100 µM.

Q: What about the “Hill coefficient of concentration-inhibition curve” value ([3]; 10 mM choline-induced currents, MS/DB neurons, n=8) of the same molecule?
A: Its value is 0.9.

Q: And the IC50 ([3]; 10 mM choline, MS/DB neurons, n=8, read-out: IC50 for inhibition of choline-induced currents)?
A: Its IC50 is 170 nM.

Q: And the “potency difference as inhibitor of choline-induced current, MS/DB vs VTA neurons” value ([3]; printed as less potent in MS/BD than in VTA neurons)?
A: The value was ~500 fold.

Q: With “Aβ1-42: amyloid beta peptides at positions 1-42 of the amyloid precursor protein (APP), purchased from rPeptide” as the molecule, how does the “sensitivity of choline-induced currents to peptide” value (heteromeric α7β2-nAChRs) read?
A: Its value is “demonstrated sensitivity”.

Q: And the “suppression of choline-induced currents” value [1]?
A: Its value is “failed to suppress”.

Q: What about the “toxic effects on hippocampal neurons” value [4] of the same molecule?
A: The value was “did not show toxic effects”.

Q: And the “suppression of choline-induced currents” value [5]?
A: Its value is “did suppress”.

Q: What about the “effect on choline-induced currents” value [2] of the same molecule?
A: Its value is “not sensitive”.

Q: And the “inhibition of GABA-induced currents” value (GABAA receptors)?
A: The value was “insensitive”.

Q: What about the “inhibition of glutamate-induced currents” value [6] of the same molecule?
A: The value was “insensitive”.

Q: What about the “cytotoxicity by LDH levels” value ([7]; 100 nM for 4, 7 and 10 days, primary cultured hippocampal neurons) of the same molecule?
A: The value was “increased LDH levels”.

Q: And the “loss of cultured hippocampal neurons (DAPI staining)” value ([7]; 100 nM over several days)?
A: Its value is “cell loss in an exposure-time-dependent manner”.

Q: What about the “induction of neuronal hyperexcitation” value (neurons from α7−/− mice) of the same molecule?
A: Its value is “failed to evoke neuronal hyperexcitation”.

Q: And the sEPSC amplitude [8, 10]?
A: Its sEPSC amplitude is “but not amplitude”.

Q: What about the sEPSC frequency [8, 10] of the same molecule?
A: The sEPSC frequency was “enhances sEPSC frequency”.

Q: What about the “neuronal excitability (spontaneous bursting AP firing, input-output curve)” value [8] of the same molecule?
A: The value was “shifted leftwards”.

Q: What about the “effect on ACh-induced current” value [3] of the same molecule?
A: Its value is “evident”.

Q: With `C[C@@H]1O[C@H](C[N+](C)(C)C)C[C@H]1O` [muscarine] as the molecule, how does the “sensitivity of spontaneous action potential firing” value (MS/DB neurons) read?
A: Its value is “insensitive”.

Q: `CCN1C[C@]2(COC(=O)c3ccccc3N3C(=O)C[C@H](C)C3=O)CC[C@H](OC)[C@@]34[C@@H]5C[C@H]6[C@H](OC)[C@@H]5[C@](O)(C[C@@H]6OC)[C@@](O)([C@@H](OC)[C@H]23)[C@@H]14` [MLA, methyllycaconitine] was tested. Which “effect on enhanced neuronal excitation after chronic Aβ exposure” value ([8]; following a depolarizing pulse, MLA pretreated for 2 min, Aβ oligomers for 9 days) did it give?
A: The value was “reversibly eliminated”.

Q: How did the “mean resting membrane potential of treated neurons” value ([8]; 10 days treatment, n=11, untreated −62.8±3.3 mV) turn out when “fibrillar Aβ: Aβ1-42 stock incubated at 37° C. for 48 h at pH 6.0, predominantly fibrillar form” was run?
A: Its value is −53.4±2.6 mV.

Q: And the “neuronal excitability (spontaneous bursting AP firing, input-output curve)” value [8]?
A: The value was “spontaneous bursting AP firing was observed”.

Q: What about the “suppression of choline-induced responses by peptide form” value (“suppression … by peptide form” below) [3] of the same molecule?
A: Its value is “weaker inhibitory effect”.

Q: What does the source list for `C[N+](C)(C)CCOC(N)=O` [CCh, carbachol]?
A: induced network synchronization [9]: much stronger network synchronization; induced network synchronization (hippocampal CA1 slices): induced two types of network synchronizations; induced network synchronization (α7−/− slices): failed to induce θ-oscillations

Q: Which “suppression … by peptide form” value [3] does the source give for “oligomeric Aβ1-42: Aβ1-42 reconstituted in distilled water, predominantly oligomeric form” here?
A: The value was “greatest suppression”.

Q: `CNCC/C=C/c1cccnc1` [RJR-2403] was tested. Which “whole-cell current response to agonist” value [2] did it give?
A: The value was “mimicked”.

Q: And the “whole-cell current response to agonist” value [3]?
A: Its value is “insensitive”.

Q: Which “suppression … by peptide form” value [3] does the source give for “monomeric Aβ1-42: Aβ1-42 reconstituted in DMSO, predominant monomeric form” here?
A: The value was “failed to suppress”.
